Laboratory results as given in patent publication US10829458B2 (Araxes Pharma LLC, priority 2015, dated 2020).

The compounds below were run against T1, KRAS G12C 1-169, his-tagged protein, GDP-loaded (Homo sapiens, UniProt P01116, G12C) (assay: Biochemical assay: covalent modification of KRAS G12C measured by mass spectrometry (RapidFire/TOF or Q-Exactive)). Settings: covalent binding to KRAS G12C; compounds of structure (I).
T1 construct: KRAS G12C 1-169, his-tagged protein, GDP-loaded
Procedure, shortened: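 GDP-loaded his-tagged KRAS G12C 1-169 at 2 μM in 20 mM Hepes, 150 mM NaCl, 1 mM MgCl2 incubated at room temperature with compound (10, 30 or 100 μM final, 2% DMSO) for 30 min, 2 h or 24 h, then quenched with formic acid. Intact-protein LC-MS (RapidFire/TOF or Q-Exactive) with deconvolution quantified modified versus unmodified protein.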

Row | Compound | Binding %
1 | C=CC(=O)N1CCN(c2nc(C(=O)N3CCN(C)CC3)nc3c(F)c(-c4c(O)cccc4F)c(Cl)cc23)CC1 [Example I-90, 1-(4-(6-chloro-8-fluoro-7-(2-fluoro-6-hydroxyphenyl)-2-(4-methyl-piperazine-1-carbonyl)quinazolin-4-yl)piperazin-1-yl)prop-2-en-1-one] | +++ (+++ indicates binding activity greater than 90%)
2 | C=CC(=O)N1CCN(c2nc(OCCN3CCOCC3)nc3c(F)c(-c4c(O)ccc(F)c4F)c(Cl)cc23)CC1 [Example I-91, 1-(4-(6-chloro-7-(2,3-difluoro-6-hydroxyphenyl)-8-fluoro-2-(2-morpholino-ethoxy)quinazolin-4-yl)piperazin-1-yl)prop-2-en-1-one] | +++ (+++ indicates binding activity greater than 90%)
3 | C=CC(=O)N1CCN(c2nc(OC3CCN(C)CC3)nc3c(F)c(-c4c(O)cccc4F)c(Cl)cc23)CC1 [Example I-92, 1-(4-(6-chloro-8-fluoro-7-(2-fluoro-6-hydroxyphenyl)-2-(1-methyl-piperidin-4-yloxy)quinazolin-4-yl)piperazin-1-yl)prop-2-en-1-one] | +++ (+++ indicates binding activity greater than 90%)
4 | C=CC(=O)N1CCN(c2nc(OC3CCN(C)CC3)nc3c(F)c(-c4cc(O)cc5ccccc45)c(Cl)cc23)CC1 [Example I-93, 1-(4-(6-chloro-8-fluoro-7-(3-hydroxy-naphthalen-1-yl)-2-(1-methyl-piperidin-4-yloxy)quinazolin-4-yl)piperazin-1-yl)prop-2-en-1-one] | +++ (+++ indicates binding activity greater than 90%)
5 | C=CC(=O)N1CCN(c2nc(OC3CCN(C4CC4)CC3)nc3c(F)c(-c4c(O)cccc4F)c(Cl)cc23)CC1 [Example I-94, 1-(4-(6-chloro-2-(1-cyclopropyl-piperidin-4-yloxy)-8-fluoro-7-(2-fluoro-6-hydroxyphenyl)quinazolin-4-yl)piperazin-1-yl)prop-2-en-1-one] | +++ (+++ indicates binding activity greater than 90%)
6 | C=CC(=O)N1CCN(c2nc(OCc3cccc(C)n3)nc3c(F)c(-c4c(O)cccc4F)c(Cl)cc23)CC1 [Example I-99, 1-(4-(6-chloro-8-fluoro-7-(2-fluoro-6-hydroxyphenyl)-2-((6-methyl-pyridin-2-yl)methoxy)quinazolin-4-yl)piperazin-1-yl)prop-2-en-1-one] | +++ (+++ indicates binding activity greater than 90%)
7 | C=CC(=O)N1CCN(c2nc(OCCc3ccc(F)cn3)nc3c(F)c(-c4c(O)cccc4F)c(Cl)cc23)CC1 [Example I-100, 1-(4-(6-chloro-8-fluoro-7-(2-fluoro-6-hydroxyphenyl)-2-(2-(5-fluoro-pyridin-2-yl)ethoxy)quinazolin-4-yl)piperazin-1-yl) prop-2-en-1-one] | +++ (+++ indicates binding activity greater than 90%)
8 | C=CC(=O)N1CCN(c2nc(OCc3cnc(C)nc3)nc3c(F)c(-c4c(O)cccc4F)c(Cl)cc23)CC1 [Example I-101, 1-(4-(6-chloro-8-fluoro-7-(2-fluoro-6-hydroxyphenyl)-2-((2-methyl-pyrimidin-5-yl)methoxy)quinazolin-4-yl)piperazin-1-yl) prop-2-en-1-one] | +++ (+++ indicates binding activity greater than 90%)
9 | C=CC(=O)N1CCN(c2nc(OCc3ccc(C)nc3)nc3c(F)c(-c4c(O)cccc4F)c(Cl)cc23)CC1 [Example I-104, 1-(4-(6-chloro-8-fluoro-7-(2-fluoro-6-hydroxyphenyl)-2-((6-methyl-pyridin-3-yl)methoxy)quinazolin-4-yl)piperazin-1-yl) prop-2-en-1-one] | + (+ indicates binding activity up to 50%)
10 | C=CC(=O)N1CCN(c2nc(OCc3ncccn3)nc3c(F)c(-c4c(O)cccc4F)c(Cl)cc23)CC1 [Example I-105, 1-(4-(6-chloro-8-fluoro-7-(2-fluoro-6-hydroxyphenyl)-2-(pyrimidin-2-ylmethoxy)quinazolin-4-yl)piperazin-1-yl) prop-2-en-1-one] | +++ (+++ indicates binding activity greater than 90%)
11 | C=CC(=O)N1CCN(c2nc(N3CC(N(C)C)C3)nc3c(F)c(-c4cc(O)cc5ccccc45)c(Cl)cc23)CC1 [Example I-106, 1-(4-(6-chloro-2-(3-(dimethyl-amino)azetidin-1-yl)-8-fluoro-7-(3-hydroxy-naphthalen-1-yl)quinazolin-4-yl)piperazin-1-yl) prop-2-en-1-one] | +++ (+++ indicates binding activity greater than 90%)
12 | C=CC(=O)N1CCN(c2nc(OCCN3CC(F)(F)C3)nc3c(F)c(-c4cc(O)cc5ccccc45)c(Cl)cc23)CC1 [Example I-107, 1-(4-(6-chloro-2-(2-(3,3-difluoro-azetidin-1-yl)ethoxy)-8-fluoro-7-(3-hydroxy-naphthalen-1-yl)quinazolin-4-yl)piperazin-1-yl) prop-2-en-1-one] | +++ (+++ indicates binding activity greater than 90%)
13 | C=CC(=O)N1CCN(c2nc(OCCN3CCOCC3)nc3c(F)c(-c4cc(O)cc5cccnc45)c(Cl)cc23)CC1 [Example I-108, 1-(4-(6-chloro-8-fluoro-7-(6-hydroxy-quinolin-8-yl)-2-(2-morpholino-ethoxy)quinazolin-4-yl)piperazin-1-yl) prop-2-en-1-one] | +++ (+++ indicates binding activity greater than 90%)
14 | C=CC(=O)N1CCN(c2nc(OCc3ncco3)nc3c(F)c(-c4c(O)cccc4F)c(Cl)cc23)CC1 [Example I-109, 1-(4-(6-chloro-8-fluoro-7-(2-fluoro-6-hydroxyphenyl)-2-(oxazol-2-ylmethoxy)quinazolin-4-yl)piperazin-1-yl) prop-2-en-1-one] | +++ (+++ indicates binding activity greater than 90%)
15 | C=CC(=O)N1CCN(c2nc(NC3CCN(CC4CC4)CC3)nc3c(F)c(-c4c(O)cccc4F)c(Cl)cc23)CC1 [Example I-110, 1-(4-(6-chloro-2-(1-(cyclopropyl-methyl)piperidin-4-ylamino)-8-fluoro-7-(2-fluoro-6-hydroxyphenyl)quinazolin-4-yl)piperazin-1-yl) prop-2-en-1-one] | +++ (+++ indicates binding activity greater than 90%)
16 | C=CC(=O)N1CCN(c2nc(OCCc3ccc(C)nc3)nc3c(F)c(-c4c(O)cccc4F)c(Cl)cc23)CC1 [Example I-111, 1-(4-(6-chloro-8-fluoro-7-(2-fluoro-6-hydroxyphenyl)-2-(2-(6-methyl-pyridin-3-yl)ethoxy)quinazolin-4-yl)piperazin-1-yl) prop-2-en-1-one] | + (+ indicates binding activity up to 50%)
17 | C=CC(=O)N1CCN(c2nc(OCc3ccccn3)nc3c(F)c(-c4c(O)cccc4F)c(Cl)cc23)CC1 [Example I-112, 1-(4-(6-chloro-8-fluoro-7-(2-fluoro-6-hydroxyphenyl)-2-(pyridin-2-ylmethoxy)quinazolin-4-yl)piperazin-1-yl) prop-2-en-1-one] | +++ (+++ indicates binding activity greater than 90%)
18 | C=CC(=O)N1CCN(c2nc(OCCS(C)(=O)=O)nc3c(F)c(-c4c(O)cccc4F)c(Cl)cc23)CC1 [Example I-113, 1-(4-(6-chloro-8-fluoro-7-(2-fluoro-6-hydroxyphenyl)-2-(2-(methyl-sulfonyl)ethoxy)quinazolin-4-yl)piperazin-1-yl) prop-2-en-1-one] | +++ (+++ indicates binding activity greater than 90%)
19 | C=CC(=O)N1CCN(c2nc(OCCc3ncccc3F)nc3c(F)c(-c4c(O)cccc4F)c(Cl)cc23)CC1 [Example I-114, 1-(4-(6-chloro-8-fluoro-7-(2-fluoro-6-hydroxyphenyl)-2-(2-(3-fluoro-pyridin-2-yl)ethoxy)quinazolin-4-yl)piperazin-1-yl) prop-2-en-1-one] | +++ (+++ indicates binding activity greater than 90%)
20 | C=CC(=O)N1CCN(c2nc(OC3CCN(C(C)=O)CC3)nc3c(F)c(-c4c(O)cccc4F)c(Cl)cc23)CC1 [Example I-115, 1-(4-(2-(1-acetylpiperidin-4-yloxy)-6-chloro-8-fluoro-7-(2-fluoro-6-hydroxyphenyl)quinazolin-4-yl)piperazin-1-yl) prop-2-en-1-one] | +++ (+++ indicates binding activity greater than 90%)
21 | C=CC(=O)N1CCN(c2nc(OCc3cnc(OC)nc3)nc3c(F)c(-c4c(O)cccc4F)c(Cl)cc23)CC1 [Example I-118, 1-(4-(6-chloro-8-fluoro-7-(2-fluoro-6-hydroxyphenyl)-2-((2-methoxy-pyrimidin-5-yl)methoxy)quinazolin-4-yl)piperazin-1-yl) prop-2-en-1-one] | +++ (+++ indicates binding activity greater than 90%)
22 | C=CC(=O)N1CCN(c2nc(OCc3cccnn3)nc3c(F)c(-c4c(O)cccc4F)c(Cl)cc23)CC1 [Example I-119, 1-(4-(6-chloro-8-fluoro-7-(2-fluoro-6-hydroxyphenyl)-2-(pyridazin-3-ylmethoxy)quinazolin-4-yl)piperazin-1-yl) prop-2-en-1-one] | + (+ indicates binding activity up to 50%)
23 | C=CC(=O)N1CCN(c2nc(NC3CCCN(C4CC4)C3)nc3c(F)c(-c4c(O)cccc4F)c(Cl)cc23)CC1 (stereo not drawn) [Example I-120, 1-(4-(6-chloro-2-(1-cyclopropyl-piperidin-3-ylamino)-8-fluoro-7-(2-fluoro-6-hydroxyphenyl)quinazolin-4-yl)piperazin-1-yl) prop-2-en-1-one] | ++ (++ indicates binding activity from 50 to 90%)
24 | C=CC(=O)N1CCN(c2nc(NC3CCCN(C(C)C)C3)nc3c(F)c(-c4c(O)cccc4F)c(Cl)cc23)CC1 (stereo not drawn) [Example I-121, 1-(4-(6-chloro-8-fluoro-7-(2-fluoro-6-hydroxyphenyl)-2-(1-isopropyl-piperidin-3-ylamino)quinazolin-4-yl)piperazin-1-yl) prop-2-en-1-one] | +++ (+++ indicates binding activity greater than 90%)
